Measurements taken from patent US4550159A, “Anthracycline compounds” (Microbial Chemistry Research Foundation, priority 1982, dated 1985).
In brackets after ≈: the same amount, converted by molar mass.

Columns and labels:
L1210 cells [1] = assay: Cytotoxicity, growth of L1210 cells; type: cell-based; conditions: Mus musculus, read-out: ID50, growth
From the text: (§1) The results are shown below.

L1210 cells [2] = assay: Cytotoxicity, DNA synthesis in L1210 cells; type: cell-based; conditions: Mus musculus, read-out: ID50, DNA synthesis
From the text: as §1

Coryn. bovis 1810 = assay: Antimicrobial activity, MIC by agar dilution method; type: cell-based; conditions: Corynebacterium bovis; Coryn. bovis 1810, agar dilution method
From the text: (§2) The antimicrobial activity of ditrisarubicin according to the present invention was examined. It is expressed as minimum inhibitory concentration (MIC) determined by the agar dilution method.

K. pnuemoniae PCI 602 = assay: as above; type: cell-based; conditions: K. pnuemoniae PCI 602, agar dilution method
From the text: as §2

B. cereus ATCC 10702 = assay: as above; type: cell-based; conditions: Bacillus cereus, ATCC10702; B. cereus ATCC 10702, agar dilution method
From the text: as §2

Pseu. aeruginosa A3 = assay: as above; type: cell-based; conditions: Pseudomonas aeruginosa
From the text: as §2

S. aureus Smith = assay: as above; type: cell-based; conditions: Staphylococcus aureus
From the text: as §2

B. subtilis PCI 219 = assay: as above; type: cell-based; conditions: Bacillus subtilis, PCI219; B. subtilis PCI 219, agar dilution method
From the text: as §2

Sal. typhi T-63 = assay: as above; type: cell-based; conditions: Salmonella enterica; Sal. typhi T-63, agar dilution method
From the text: as §2

S. aureus MS9610 = assay: as above; type: cell-based; conditions: Staphylococcus aureus
From the text: as §2

[3] = system: M. lysodeikticus IFO 3333; assay: as above; type: cell-based; conditions: Micrococcus luteus, IFO3333; M. lysodeikticus IFO 3333, agar dilution method
From the text: as §2

S. aureus MS8710 = assay: as above; type: cell-based; conditions: Staphylococcus aureus
From the text: as §2

Serr. marcessens = assay: as above; type: cell-based
From the text: as §2

S. aureus 209 P = assay: as above; type: cell-based; conditions: Staphylococcus aureus
From the text: as §2

Prot. vulgaris OX19 = assay: as above; type: cell-based; conditions: Proteus vulgaris
From the text: as §2

E. coli NIHJ = assay: as above; type: cell-based; conditions: Escherichia coli
From the text: as §2

L1210 leukemia cells = assay: Antitumor activity, increase of life span, L1210 leukemia cells in CDF1 mice; type: in vivo; conditions: intraperitoneal, 10 days
Procedure: To CDF1 mice were intraperitoneally transplanted 1×10^5 L1210 leukemia cells/mouse as a suspension. After the transplantation, each 0.25 ml of a solution containing the test compound was intraperitoneally injected for 10 days, beginning on the day of transplantation. […] The increase of life span (%) compared with the control group consisting of mice administered with physiological saline solution instead of the test compound was calculated from the following equation: [formula]

Solubility = type: physicochemical
L1210 cells [4] = assay: Cytotoxicity, protein synthesis in L1210 cells; type: cell-based; conditions: Mus musculus; for IC50: read-out: ID50, protein synthesis
From the text: as §1

L1210 cells [5] = assay: Cytotoxicity, RNA synthesis in L1210 cells; type: cell-based; conditions: Mus musculus, read-out: ID50, RNA synthesis
From the text: as §1

## CCC1(O)CC(OC2CC(N(C)C)C(OC3CC4OC5CC(=O)C(C)OC5OC4C(C)O3)C(C)O2)c2c(O)c3c(c(O)c2C1OC1CC(N(C)C)C(OC2CC(O)C(OC4CCC(=O)C(C)O4)C(C)O2)C(C)O1)C(=O)c1cccc(O)c1C3=O (stereo not drawn) [Ditrisarubicin A]
L1210 cells [1]
  IC50: 0.0005 µg/mL (≈ 0.000423 µM)
L1210 cells [2]
  IC50: 0.31 µg/mL (≈ 0.262 µM)
Coryn. bovis 1810
  MIC: 0.78 µg/mL (≈ 0.659 µM)
K. pnuemoniae PCI 602
  MIC: 50 µg/mL (≈ 42.3 µM)
B. cereus ATCC 10702
  MIC: 0.39 µg/mL (≈ 0.33 µM)
Pseu. aeruginosa A3
  MIC: 12.5 µg/mL (≈ 10.6 µM)
S. aureus Smith
  MIC: 0.39 µg/mL (≈ 0.33 µM)
B. subtilis PCI 219
  MIC: < 0.2 µg/mL
Sal. typhi T-63
  MIC: 50 µg/mL (≈ 42.3 µM)
S. aureus MS9610
  MIC: 0.39 µg/mL (≈ 0.33 µM)
[3]
  MIC: < 0.2 µg/mL
S. aureus MS8710
  MIC: < 0.2 µg/mL
Serr. marcessens
  MIC: 50 µg/mL (≈ 42.3 µM)
S. aureus 209 P
  MIC: < 0.2 µg/mL
Prot. vulgaris OX19
  MIC: 50 µg/mL (≈ 42.3 µM)
E. coli NIHJ
  MIC: 50 µg/mL (≈ 42.3 µM)
L1210 leukemia cells; 0.016 mg/kg/day
  Increase of life span: 136%
L1210 leukemia cells; 0.031 mg/kg/day
  Increase of life span: 148%
L1210 leukemia cells; 0.063 mg/kg/day
  Increase of life span: 148%
L1210 leukemia cells; 0.125 mg/kg/day
  Increase of life span: 119%
L1210 leukemia cells; 0.25 mg/kg/day
  Increase of life span: 91%
Solubility
  Solubility in methanol, acetone, ethyl acetate, chloroform, acetonitrile and DMSO: soluble
  Solubility in water, n-hexane and petroleum ether: sparingly soluble
L1210 cells [4]
  IC50: 8.5 µg/mL (≈ 7.18 µM)
L1210 cells [5]
  IC50: 0.023 µg/mL (≈ 0.0194 µM)

## CCC1(O)CC(OC2CC(N(C)C)C(OC3CC4OC5CC(=O)C(C)OC5OC4C(C)O3)C(C)O2)c2c(O)c3c(c(O)c2C1OC1CC(N(C)C)C(OC2CCC(OC4C=CC(=O)C(C)O4)C(C)O2)C(C)O1)C(=O)c1cccc(O)c1C3=O (stereo not drawn) [Ditrisarubicin C]
L1210 cells [1]
  IC50: 0.0007 µg/mL (≈ 0.000601 µM)
L1210 cells [2]
  IC50: 0.14 µg/mL (≈ 0.12 µM)
Coryn. bovis 1810
  MIC: < 0.2 µg/mL
K. pnuemoniae PCI 602
  MIC: > 50 µg/mL
B. cereus ATCC 10702
  MIC: 0.39 µg/mL (≈ 0.335 µM)
Pseu. aeruginosa A3
  MIC: 25 µg/mL (≈ 21.5 µM)
S. aureus Smith
  MIC: 0.39 µg/mL (≈ 0.335 µM)
B. subtilis PCI 219
  MIC: 0.39 µg/mL (≈ 0.335 µM)
Sal. typhi T-63
  MIC: > 50 µg/mL
S. aureus MS9610
  MIC: < 0.2 µg/mL
[3]
  MIC: < 0.2 µg/mL
S. aureus MS8710
  MIC: < 0.2 µg/mL
Serr. marcessens
  MIC: 50 µg/mL (≈ 42.9 µM)
S. aureus 209 P
  MIC: < 0.2 µg/mL
Prot. vulgaris OX19
  MIC: 50 µg/mL (≈ 42.9 µM)
E. coli NIHJ
  MIC: > 50 µg/mL
L1210 leukemia cells; 0.016 mg/kg/day
  Increase of life span: 142%
L1210 leukemia cells; 0.031 mg/kg/day
  Increase of life span: 182%
L1210 leukemia cells; 0.063 mg/kg/day
  Increase of life span: 142%
L1210 leukemia cells; 0.125 mg/kg/day
  Increase of life span: 148%
L1210 leukemia cells; 0.25 mg/kg/day
  Increase of life span: 114%
Solubility
  Solubility in methanol, acetone, ethyl acetate, chloroform, acetonitrile and DMSO: soluble
  Solubility in water, n-hexane and petroleum ether: sparingly soluble
L1210 cells [4]
  IC50: 3.2 µg/mL (≈ 2.75 µM)
L1210 cells [5]
  IC50: 0.014 µg/mL (≈ 0.012 µM)

## CCC1(O)CC(OC2CC(N(C)C)C(OC3CC4OC5CC(=O)C(C)OC5OC4C(C)O3)C(C)O2)c2c(O)c3c(c(O)c2C1OC1CC(N(C)C)C(OC2CC4OC5CC(=O)C(C)OC5OC4C(C)O2)C(C)O1)C(=O)c1cccc(O)c1C3=O (stereo not drawn) [Ditrisarubicin B]
L1210 cells [1]
  IC50: 0.0011 µg/mL (≈ 0.000931 µM)
L1210 cells [2]
  IC50: 0.29 µg/mL (≈ 0.245 µM)
Coryn. bovis 1810
  MIC: < 0.2 µg/mL
K. pnuemoniae PCI 602
  MIC: 50 µg/mL (≈ 42.3 µM)
B. cereus ATCC 10702
  MIC: 0.39 µg/mL (≈ 0.33 µM)
Pseu. aeruginosa A3
  MIC: 25 µg/mL (≈ 21.2 µM)
S. aureus Smith
  MIC: 0.78 µg/mL (≈ 0.66 µM)
B. subtilis PCI 219
  MIC: 0.39 µg/mL (≈ 0.33 µM)
Sal. typhi T-63
  MIC: > 50 µg/mL
S. aureus MS9610
  MIC: 0.39 µg/mL (≈ 0.33 µM)
[3]
  MIC: < 0.2 µg/mL
S. aureus MS8710
  MIC: 0.39 µg/mL (≈ 0.33 µM)
Serr. marcessens
  MIC: 50 µg/mL (≈ 42.3 µM)
S. aureus 209 P
  MIC: < 0.2 µg/mL
Prot. vulgaris OX19
  MIC: 50 µg/mL (≈ 42.3 µM)
E. coli NIHJ
  MIC: > 50 µg/mL
L1210 leukemia cells; 0.016 mg/kg/day
  Increase of life span: 114%
L1210 leukemia cells; 0.031 mg/kg/day
  Increase of life span: 136%
L1210 leukemia cells; 0.063 mg/kg/day
  Increase of life span: 148%
L1210 leukemia cells; 0.125 mg/kg/day
  Increase of life span: 159%
L1210 leukemia cells; 0.25 mg/kg/day
  Increase of life span: 108%
Solubility
  Solubility in methanol, acetone, ethyl acetate, chloroform, acetonitrile and DMSO: soluble
  Solubility in water, n-hexane and petroleum ether: sparingly soluble
L1210 cells [4]; with 10 γ/ml
  inhibition at 10 µg/mL: 23.3%
L1210 cells [5]
  IC50: 0.029 µg/mL (≈ 0.0245 µM)
